The values that follow come from patent US20220226484A1, “THERAPEUTIC PEPTIDES” (COHBAR, INC., priority 2019, published 2022).

Positions of bridges follow the written chain, without caps; N, C: chain ends. Non-standard residues stand in square brackets, D forms with d. Primed or numbered codes have the meaning given here. Chains are numbered I, II in the order given. No end group written: not given here. PEG12′ = not defined here

Assay type in all cases: cell-based
One test deals with C2C12 Mouse Myoblasts. Description: Glucose utilization. The settings on record: metformin 1 mM. The protocol: The effect of the peptides on glucose metabolism can be assessed using an assay of glucose utilization in cultured cultured cells such as mouse myoblasts. Peptides were initially prepared as 10 mM stock in DMSO and used at a final concentration of 10 μM (0.1% DMSO). C2C12 mouse myoblast cell line was purchased from American Type Culture Collection (Manassas, Va.). C2C12 cultures were maintained at 37° C. in a humidified atmosphere of 5% CO2/95% air with medium changes every second day. C2C12 cells were grown in DMEM (1 g/L glucose) supplemented with 10% FBS with 100 IU/ml penicillin and 100 μg/ml streptomycin. C2C12 cells were seeded at 7,000 cells per well on 96-well plates and cultured to confluence. Once the cell reached confluence the media was changed to DMEM (1 g/L glucose) supplemented with 2% HS with 100 IU/ml penicillin and 100 μg/ml streptomycin and maintained at 37° C. in a humidified atmosphere of 5% CO2/95% air. 5 days post-induction of differentiation fresh DMEM (1 g/L glucose) supplemented with 2% HS with 100 IU/ml penicillin and 100 μg/ml streptomycin was added to cultures. Cells were maintained at 37° C. in a humidified atmosphere of 5% CO2 and 95% air for 5 hours. After 5 hours test peptides at 10 μM or controls (0.5 mM or 1 mM metformin in 1% DMSO) prepared in fresh differentiation medium were added to cells and the cultures were maintained at 37° C. in a humidified atmosphere of 5% CO2/95% air for 18-22 hours. At the end of the incubation culture media was removed from the cells and the remaining glucose concentration was measured using a Glucose Assay kit (Abcam) according to the manufacturer's instructions, using a Cytation 3 plate reader at 570 nm (BioTek, Winooski, Vt.). Glucose concentrations in the medium were calculated relative to 0.1% DMSO treated control cells. The relative standard deviation of the result for the 0.1% DMSO treated control was <20%. Metformin was used as a positive control for reduction of glucose levels (increased glucose utilization glucose levels for treatment with metformin (1 mM) treatment were <20% of the 0.1% DMSO treated control value. The results are reported in Table 7.

For test [1], the system named is WI-38 cells (human fetal lung fibroblast cells). Description: Fibroblast-to-myofibroblast transition assay, pro-collagen I alpha 1 expression. The settings on record: 10 μM peptide and 5 ng/ml TGF-β, 48 h, cell lysates. The protocol: The effect of the peptides on fibrosis can be assessed in vitro using a fibroblast-to-myofibroblast transition (FMT) assay and monitoring pro-collagen I alpha 1 expression produced by cultured cells such as human fetal lung fibroblast cells. Peptides were initially prepared as 10 mM stock solutions in DMSO or 1 mM stock in H2O and were used at a final concentration of 10 μM (0-0.1% DMSO). Transforming Growth Factor beta (TGF-β) was used as a potent inducer of FMT as measured by increased pro-collagen I alpha 1 expression. Human WI-38 cell line was purchased from American Type Culture Collection (Manassas, Va.). WI-38 cells were seeded in complete medium (DMEM/high glucose (4 g/L)+10% Fetal Bovine Serum+1% penicillin/streptomycin) at 40,000 cells/well on 48-well plates and placed at 37° C. in a humidified atmosphere of 5% CO2/95% air. The next day, the medium was removed, cells were rinsed twice with HBSS, and the medium replaced with Serum Restricted Medium (DMEM/high glucose (4 g/L)+0.2% Fetal Bovine Serum+1% penicillin/streptomycin). The cultures were placed at 37° C. in a humidified atmosphere of 5% CO2/95% air overnight. Following 24 h in Serum Restricted Medium, the medium was removed, and the following was added: fresh Serum Restricted Medium alone (no TGF-β control); fresh Serum Restricted Medium containing 5 ng/ml TGF-β (TGF-β control); or fresh Serum Restricted Medium containing 10 μM peptide and 5 ng/ml TGF-β. Cells were incubated for 48 h at 37° C. in a humidified atmosphere of 5% CO2/95% air, washed twice with cold HBSS and immediately lysed. Lysis and determination of pro-collagen I alpha 1 concentrations in the cell lysates were performed using a Pro-Collagen I Alpha 1 ELISA kit (Abcam; Cambridge, Mass.) according to the manufacturer's instructions; absorbance was measured using a Cytation 3 plate reader at 450 nm (BioTek, Winooski, Vt.).

For a further test, the system named is 3T3-L1 Mouse Adipocytes. Description: Insulin-dependent effect on free fatty acid levels in cultured mouse adipocytes. Particulars: 3 hours; for Free Fatty Acid Levels, MEAN % ISO, +Insulin: peptide 10 μM + insulin 0.25 nM, percent of isoproterenol (0.1 nM)+insulin (0.25 nM); for Free Fatty Acid Levels, MEAN % ISO, −Insulin: peptide 10 μM alone, percent of isoproterenol (0.1 nM) treated control cells. The protocol: The effect of the peptides on fatty acid metabolism was assessed in the absence and presence of insulin using an assay of free fatty acid levels in cultured cells such as mouse adipocytes. Peptides were initially prepared as 10 mM stock in DMSO and used at a final concentration of 10 μM (0.1% DMSO). […] Insulin (0.25 nM) was used as a partial inhibitor and insulin (10 nM) was used as a potent inhibitor of isoproterenol stimulated fatty acid production. Mouse 3T3-L1 cells purchased from ZenBio (Research Triangle Park, N.C.) were seeded at 3,000 cells per well on 96-well plates in Pre-Adipocyte Medium (Zen-Bio) and grown to confluence at 37° C. in a humidified atmosphere of 5% CO2/95% air. Two days after confluence, cells were placed in Adipocyte Differentiation Medium (Zen-Bio) and cultured for three additional days at 37° C. in a humidified atmosphere of 5% CO2/95% air. The culture medium was then partially replaced with Adipocyte Maintenance Medium (Zen-Bio) and the cells maintained at 37° C. in a humidified atmosphere of 5% CO2/95% air with partial medium replacement every other day. At 12 day of differentiation, 96-well cultures were transferred to Adipocyte Maintenance Medium without insulin and placed at 37° C. in a humidified atmosphere of 5% CO2/95% air for two days. Following this incubation period, the medium was removed from 14 day differentiated cultures and replaced with Assay Buffer (Zen-Bio) containing peptides (10 μM), insulin (0.25 nM or 10 nM), isoproterenol (0.1 nM) as appropriate. […] isoproterenol was added to all wells except untreated controls. Insulin at 0.1 nM and 10 nM was added to control wells. Peptides (10 μM) in the absence or presence of insulin (0.25 nM) were added to test wells. Cells in the presence of compounds were placed at 37° C. in a humidified atmosphere of 5% CO2/95% air for 3 hours. At the end of the final 3 h incubation, conditioned assay buffer was removed from each well and place in a fresh 96-well plate for quantitation of free fatty acid content. Free fatty acid concentrations in the assay buffer samples were determined using a Free Fatty Acid Assay kit (Zen-Bio) according to the manufacturer's instructions using a Cytation 3 plate reader at 540 nm (BioTek, Winooski, VD. Absorbance values were corrected for untreated background and expressed as a percent of isoproterenol (0.1 nM) treated control cells for peptides alone or isoproterenol (0.1 nM)+insulin (0.25 nM) for peptides in presence of insulin (0.25 nM). Treatment with isoproterenol […] alone was used as the free fatty acid level stimulatory control. The relative standard deviation of the isoproterenol control was <10%. […] Free fatty acid levels for insulin (10 nM) treatment were <5% of the isoproterenol control value. Free fatty acid levels for insulin (0.25 nM) treatment were 60-80% of the isoproterenol control value.

The subject of a further test is H4IIE Rat Hepatoma Cells. Description: Insulin-dependent effect on glucose production by cultured rat liver cells. Particulars: 24 hour; for Glucose Levels, MEAN % Control, +Insulin: peptide 10 μM + insulin 800 pM, percent of insulin (800 pM); for Glucose Levels, MEAN % Control, −Insulin: peptide 10 μM alone, percent of untreated control cells. How it is done:
The effect of the peptides on glucose production was assessed in the absence and presence of insulin using an assay of glucose levels in cultured cells such as rat hepatocytes. Peptides were initially prepared as 10 mM stock in DMSO and used at a final concentration of 10 μM (0.1% DMSO). Insulin (800 pM) was used as a partial inhibitor of glucose production. H4-IIE cells purchased from ATCC (Manassas, Va.) were seeded at 100,000 cells/well in standard medium (DMEM/high glucose+10% FBS+1× Glutamax+antibiotics) on 96-well plates and allowed to adhere overnight at 37° C. in a humidified atmosphere of 5% CO2/95% air. Approximately 24 h after seeding, the medium was removed, cells rinsed with glucose free DMEM, and Glucose Production Medium (glucose free DMEM+2 mM sodium pyruvate+10 mM sodium lactate) was added. The cultures were placed at 37° C. in a humidified atmosphere of 5% CO2/95% air overnight. The next morning, the medium was removed and fresh Glucose Production Medium containing compounds was added. Insulin at 800 pM was added to control wells. Peptides (10 μM) in the absence or presence of insulin (800 pM) were added to test wells. Cells in the presence of compounds were placed at 37° C. in a humidified atmosphere of 5% CO2/95% air overnight. After 24 hour incubation, conditioned medium from each well was transferred to a fresh 96-well plate for quantitation of glucose content. Quantitation of glucose levels was determined using an Amplex Red Glucose Assay kit (Abacm; Cambridge, Mass.) according to the manufacturer's instructions using a Cytation 3 plate reader at 570 nm (BioTek, Winooski, Vt.). Absorbance values were expressed as a percent of untreated control cells (maximum glucose production) for peptide alone samples or insulin (800 pM) for peptides in the presence of insulin (800 pM. Glucose levels for insulin (800 pM) treatment were ˜80-90% of the untreated control values. The results are reported in Table 15.

For test [2], the system named is Rat primary cortical neurons. Description: Neuroprotection against Aβ (1-42) toxicity in cultured neurons. The settings on record: Aβ (1-42) 20 μM + BDNF 50 ng/mL, 24 hours.
Method: Rat primary cortical neurons were collected and cultured by methods well known in the art (Singer et al., 1999 and Callizot et al., 2013). The cells were seeded at a density of 25,000 per well in 96-well plates precoated with poly-L-lysine and cultured at 37° C. in an air (95%)-CO2 (5%) incubator. The medium was changed every 2 days. The cortical neurons were treated after 11 days of culture. The A13(1-42) was prepared using the procedure described by Callizot et al., 2013 to ensure monomeric peptide. Compounds and the positive control, BDNF (50 ng/ml), were dissolved in culture medium and then pre-incubated with primary cortical neurons for 1 hour before addition of A13(1-42) (20 μM). After 24 hours of treatment, the cell culture supernatant was removed and the cortical neurons were fixed by a cold solution of ethanol (95%) and acetic acid (5%) for 5 min at −20° C. After permeabilization with 0.1% of saponin, cells were incubated for 2 hours with mouse monoclonal antibody anti-microtubule-associated-protein 2 (MAP-2) at a dilution of 1/400 in PBS containing 1% fetal calf serum and 0.1% of saponin to stain cell bodies and neurites.
This antibody was detected with Alexa Fluor 488 goat anti-mouse IgG at the dilution 1/400 in PBS containing 1% FCS, 0.1% saponin, for 1 hour at room temperature. For each condition, images were obtained using ImageXpress (Molecular Devices) with 20× magnification. The total number of cells and extent of neurite network was determined using Custom Module Editor (Molecular Devices).

For `CN(C)C(=N)N=C(N)N` [metformin, reference compound], the “glucose levels, % of the 0.1% DMSO treated control value” with C2C12 Mouse Myoblasts is below 20%.

Regarding “RVIRMCLNVGLLGEL(dA)G [SEQ ID NO: 27] (chain 1 RVIRMCLNVGLLGEL[dA]G; chain 2 RVIRMCLNVGLLGEL[dA]G; disulfide I:6-II:6)”, the “Procollagen I Alpha 1 Mean (SEM)” value in test [1] is given as 4120 (677) pg/mL. For the same molecule, in the test with 3T3-L1 Mouse Adipocytes (listed as 27), the “Free Fatty Acid Levels, MEAN % ISO, +Insulin” value came out at 28.2% and the “Free Fatty Acid Levels, MEAN % ISO, −Insulin” value is on record as 94.5%. Moreover, in the test on H4IIE Rat Hepatoma Cells (listed as 27), the “Glucose Levels, MEAN % Control, +Insulin” value turned out to be 54.3% and the “Glucose Levels, MEAN % Control, −Insulin” value is recorded as 108%.

“RVIRMCLNVGLNGEL(dA)E (RVIRMCLNVGLNGEL[dA]E) [SEQ ID NO: 20]”: the “Procollagen I Alpha 1 Mean (SEM)” value in test [1] is reported as 4680 (377) pg/mL. In addition, in the test with 3T3-L1 Mouse Adipocytes, the “Free Fatty Acid Levels, MEAN % ISO, +Insulin” value is listed as 97.5% and the “Free Fatty Acid Levels, MEAN % ISO, −Insulin” value is recorded as 102%. For the same molecule, in the test with H4IIE Rat Hepatoma Cells, the “Glucose Levels, MEAN % Control, +Insulin” value is given as 75.1% and the “Glucose Levels, MEAN % Control, −Insulin” value was found to be 110%.

Regarding “{PEG12}KRVIRMCLGVGLLGDLAG ([PEG12′]KRVIRMCLGVGLLGDLAG) [SEQ ID NO: 16]”, in test [1], the “Procollagen I Alpha 1 Mean (SEM)” value was 3980 (569) pg/mL. Besides, in the test on 3T3-L1 Mouse Adipocytes, the “Free Fatty Acid Levels, MEAN % ISO, +Insulin” value was 33.4% and the “Free Fatty Acid Levels, MEAN % ISO, −Insulin” value is given as 54.6%. Further, in the test on H4IIE Rat Hepatoma Cells, the “Glucose Levels, MEAN % Control, +Insulin” value stood at 79.8% and the “Glucose Levels, MEAN % Control, −Insulin” value is reported as 104%.

B1: BDNF: positive control, BDNF (50 ng/ml) (protein, UniProt P23560 19-247, looked up)
Neurotrophic factor BDNF …: APMKEANIRGQGGLAYPGVRTHGTLESVNGPKAGSRGLTSLADTFEHVIEELLDEDQKVRPNEENNKDADLYTSRVMLSSQVPLEPPLLFLLEEYKNYLDAANMSMRVRRHSDPARRGELSVCDSISEWVTAADKKTAVDMSGGTVTVLEKVPVSKGQLKQYFYETKCNPMGYTKEGCRGIDKRHWNSQCRTTQSYVRALTMDSKKRIGWRFIRIDTSCVCTLTIKRGR
B1: in test [2], the “Percent Protection of Neuronal Network” value was 95% and the “Percent Survival of Neurons” value is 98%.
